In paper PMC10500001, “Dual hypoxia-responsive supramolecular complex for cancer target therapy” (Nature Communications, 2023):
Values joined by “and” are separate entries in the source; they are usually repeats but may differ in a detail not shown here. Identical values can stand only once.

Key:
PANC1 cells [1] = test: Cellular uptake mechanism with endocytosis inhibitors (flow cytometry); assay type: cell-based, human; conditions: uptake of the SAC5A complex with the inhibitor, 4 replicates
Procedure: To examine the cellular uptake mechanism of SAC5A complex, PANC1 cells (3 × 10^5 cells/well) were seeded into the six-well plates and incubated overnight. The cells were pretreated with different endocytosis inhibitors for 1 h: chlorpromazine (CHP, 20 μM, an inhibitor of clathrin-mediated endocytosis), Amiloride (AMI, 500 μM, an inhibitor of macropinocytosis), Genistein (GEN, 200 μM, an inhibitor of caveolae-mediated endocytosis), methyl-β-cyclodextrin (M-β-CD, 5 mM, an inhibitor of lipid rafts-mediated endocytosis), the cells were also pre-incubated under 4 °C for 1 h (energy-dependent endocytosis). […] After that, the cells were collected and washed three times with PBS, and then analyzed by flow cytometry. All experiments were carried out four times. […]
Chlorpromazine (CHP): inhibitor of clathrin-mediated endocytosis; amiloride (AMI): inhibitor of macropinocytosis; Genistein (GEN): inhibitor of caveolae-mediated endocytosis; Methyl-β-cyclodextrin (M-β-CD): lipid rafts-mediated endocytosis; 4 °C: energy-mediated endocytosis. Data are presented as […]

PANC1 cells [2] = test: CLSM fluorescence imaging in living cells under normoxic and hypoxic conditions; assay type: cell-based, human; conditions: 10 μM
Procedure: In this assay, SBE-β-CD was employed to generate CY5-DM@SBE-β-CD as a benchmark. […] The increased fluorescence manifested the hypoxia-selective release performance of the supramolecular complex.
PANC1 cells (1 × 10^5 cells/well) were seeded into the confocal imaging chambers. […] After a 6 h incubation under normoxic conditions, the culture medium was exchanged with fresh medium. Thereafter, the cells were incubated at 37 °C for 18 h under either normoxic or hypoxic conditions, respectively. Subsequently, the cells were fixed in 4% paraformaldehyde (PFA; Biosharp, Hefei, China) for 15 min, washed with PBS buffer three times and then imaged using CLSM. Cell nuclei were counterstained with DAPI (C0060, Solarbio, Beijing, China) for 5 min.

PANC1 tumor-bearing mice = test: In vivo fluorescence imaging; conditions: single mouse
Procedure: For animals and tumor model, male BALB/c nude mice at 5–6 weeks were purchased from Vital River Laboratory Animal Technology (Beijing, China). All animal experiments were performed according to the institutional animal care guidelines established by the Institutional Animal Care and Use Committee of Nankai University. To establish the PANC1 tumor-bearing mouse model, 1 × 10^6 PANC1 cells were injected subcutaneously into the right chest of BALB/c nude mice. After the tumor grows to a suitable size, the tumor was divided into small pieces and then subcutaneously incubated into the right chest of other mice. […] The ex vivo fluorescence imaging of major organs at 24 h post injection was imaged by IVIS. Fluorescent images were analyzed using Living Image 3.1 (Caliper Life Sciences).

[3] = parameters: method as in earlier work; conditions: ref 2 of the supplement; cited from earlier work
[4] = Competitive fluorescence titration of LCG@SC5A with NMP-BE; assay type: binding; conditions: HEPES pH 7.4
Procedure: The complexation of SAC5A with reporter dye (RhB) was measured by direct fluorescence titrations. A mixed solution containing known amounts of SAC5A and RhB was sequentially injected into 2.50 mL RhB solution in a quartz cuvette. The dye concentrations in mixed solution and cuvette are the same to keep dye concentration constant in the course of titrations. The fluorescence intensity was measured (λex = 554 nm for RhB) before the first addition and after every addition until a plateau was reached. By fitting the fluorescence intensity (λem = 575 nm for RhB) according to a 1:1 host-guest binding stoichiometry, the association constant was obtained. SC5A (LCG) and SBE-β-CD (NR) used the same method.
The complexation of SAC5A with NMP-BE was measured by competitive fluorescence titrations. […] The fluorescence intensity was measured (λex = 554 nm for RhB) before the first addition and after every addition. The association constant was obtained by fitting fluorescence intensity (λem = 575 nm for RhB) according to a 1:1 competitive binding model. […]
2.8 Fluorescence titrations of SC5A and SBE-β-CD with NMP-BE
Supplementary Figure 14. Competitive fluorescence titration of LCG@SC5A (1.0/1.0 µM) with NMP-BE (up to 80 µM) in HEPES buffer (10 mM, pH = 7.4) at 25 ℃, λex =

[5] = parameters: method as in PMID 17268062; conditions: cited from earlier work

Molecule: N=C(N)NC(=O)c1nc(Cl)c(N)nc1N [AMI]
- cellular uptake relative to Ctrl (flow cytometry) in presence of endocytosis inhibitor (PANC1 cells [1]): 144.29 and 129.79 and 106.33 and 103.16

Molecule: CN(C)CCCN1c2ccccc2Sc2ccc(Cl)cc21 [CHP]
- cellular uptake relative to Ctrl (flow cytometry) in presence of endocytosis inhibitor (PANC1 cells [1]): 134.50 and 125.70 and 108.52 and 108.27

Molecule: CN1C(=CC=CC=CC2=[N+](C)c3ccccc3C2(C)C)C(C)(C)c2ccccc21 [CY5-DM, 1,1’,3,3,3’,3’-hexamethylindodicarbocyanine]
- difference in fluorescence intensities normoxic versus hypoxic (PANC1 cells [2]): no significant difference
- FL intensity of the tumor in vivo (PANC1 tumor-bearing mice; 1h post iv injection): 1.80E+09 and 1.62E+09
- FL intensity of the tumor in vivo (PANC1 tumor-bearing mice; 3h post iv injection): 1.74E+09 and 1.60E+09
- FL intensity of the tumor in vivo (PANC1 tumor-bearing mice; 6h post iv injection): 1.41E+09 and 1.34E+09 and 1.52E+09
- FL intensity of the tumor in vivo (PANC1 tumor-bearing mice; 12h post iv injection): 1.33E+09 and 1.26E+09
- FL intensity of the tumor in vivo (PANC1 tumor-bearing mice; 24h post iv injection): 8.57E+08 and 6.21E+08 and 9.14E+08

Molecule: O=c1c(-c2ccc(O)cc2)coc2cc(O)cc(O)c12 [GEN]
- cellular uptake relative to Ctrl (flow cytometry) in presence of endocytosis inhibitor (PANC1 cells [1]): 88.04 and 87.28 and 70.24 and 68.53

Molecule: O=S(=O)(O)c1cc2c(O)c(c1)Cc1cc(S(=O)(=O)O)cc(c1O)Cc1cc(S(=O)(=O)O)cc(c1O)Cc1cc(S(=O)(=O)O)cc(c1O)Cc1cc(S(=O)(=O)O)cc(c1O)C2 [SC5A, sulfonated calix[5]arene]
- 1:1 binding affinity between SC5A and LCG [3]: 1.48 106 M−1
- bonding ability to NMP-BE [4]: almost no bonding ability

Molecule: C=C1/C=C\C(=O)N(C)CC(=O)NC(C(O)C(N)=O)C(=O)OC(C(C)CCCCCCCCCCCC(C)C)C(C)C(=O)N1 (stereo not shown) [rakicidin A]
- hypoxia-selective cytotoxicity [5]: moderate hypoxia-selective cytotoxicity

Molecule: M-β-CD
- cellular uptake relative to Ctrl (flow cytometry) in presence of endocytosis inhibitor (PANC1 cells [1]): 121.64 and 117.67 and 92.45 and 90.16
